# Experiments:
# [1] = target: T1, Prostaglandin G/H synthase 1 (Homo sapiens, UniProt P23219); type: functional
# [2] = target: T1, Prostaglandin G/H synthase 1; assay: In vitro inhibition of cyclooxygenase-1 via inhibition of TXB2 generation in the presence of 1 uM arachidonic acid in human platelets at concentration of 10 uM; type: functional
# [3] = target: T2, Prostaglandin G/H synthase 2 (Homo sapiens) (UniProt P35354); assay: In vitro inhibition of cyclooxygenase-2 via inhibition of PGE-2 generation by LPS-stimulated monocytes isolated from human blood; type: functional
# T2 sequence (whole entry): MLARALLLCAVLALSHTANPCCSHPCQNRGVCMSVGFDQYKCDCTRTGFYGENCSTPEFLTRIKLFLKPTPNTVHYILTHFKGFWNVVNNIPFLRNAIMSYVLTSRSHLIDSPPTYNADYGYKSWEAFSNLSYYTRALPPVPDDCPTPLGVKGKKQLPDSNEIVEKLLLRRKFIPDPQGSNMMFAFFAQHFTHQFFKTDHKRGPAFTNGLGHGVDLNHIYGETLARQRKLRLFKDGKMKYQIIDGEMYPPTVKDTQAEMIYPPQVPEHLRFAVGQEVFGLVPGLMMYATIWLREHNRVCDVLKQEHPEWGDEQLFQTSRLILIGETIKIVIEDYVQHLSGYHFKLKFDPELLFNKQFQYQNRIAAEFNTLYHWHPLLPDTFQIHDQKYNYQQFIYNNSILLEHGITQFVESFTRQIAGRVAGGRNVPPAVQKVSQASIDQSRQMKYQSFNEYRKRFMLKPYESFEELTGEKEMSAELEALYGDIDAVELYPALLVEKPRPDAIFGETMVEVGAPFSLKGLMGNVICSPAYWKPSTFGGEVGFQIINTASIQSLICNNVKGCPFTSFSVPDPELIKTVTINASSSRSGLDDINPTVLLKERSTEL
# [4] = target: T3, Prostaglandin G/H synthase 2 (Homo sapiens, UniProt P35354); type: functional
# T3 sequence (P35354 whole entry): T2 sequence (whole entry)
# [5] = target: T2, Prostaglandin G/H synthase 2 (Homo sapiens); assay: In vitro inhibition of cyclooxygenase-2 via inhibition of PGE-2 generation by LPS-stimulated monocytes isolated from human blood at concentration of 20 uM; type: functional
# [6] = target: T1, Prostaglandin G/H synthase 1; assay: In vitro inhibition of cyclooxygenase-1 via inhibition of TXB2 generation in the presence of 1 uM arachidonic acid in human platelets
# [7] = target: T1, Prostaglandin G/H synthase 1; assay: In vitro inhibition of cyclooxygenase-1 via inhibition of TXB2 generation in the presence of 1 uM arachidonic acid in human platelets; type: functional
# [8] = target: T1, Prostaglandin G/H synthase 1; assay: Tested in vitro for inhibition of cyclooxygenase-1 in human blood assay; type: functional
# [9] = target: T3, Prostaglandin G/H synthase 2; assay: Tested in vitro for inhibition of cyclooxygenase-2 in human blood assay; type: functional
# [10] = target: T2, Prostaglandin G/H synthase 2 (Homo sapiens); assay: In vitro inhibition of cyclooxygenase-2 via inhibition of PGE-2 generation by LPS-stimulated monocytes isolated from human blood at a concentration of 20 uM; type: functional
# [11] = target: T3, Prostaglandin G/H synthase 2; assay: In vitro inhibition of cyclooxygenase-2 via inhibition of PGE-2 generation by LPS-stimulated monocytes isolated from human blood; inactive; type: functional
# [12] = target: T1, Prostaglandin G/H synthase 1; assay: In vitro inhibition of cyclooxygenase-1 via inhibition of TXB2 generation in the presence of 1 uM arachidonic acid in human platelet; type: functional
# T1 sequence (P23219 whole entry): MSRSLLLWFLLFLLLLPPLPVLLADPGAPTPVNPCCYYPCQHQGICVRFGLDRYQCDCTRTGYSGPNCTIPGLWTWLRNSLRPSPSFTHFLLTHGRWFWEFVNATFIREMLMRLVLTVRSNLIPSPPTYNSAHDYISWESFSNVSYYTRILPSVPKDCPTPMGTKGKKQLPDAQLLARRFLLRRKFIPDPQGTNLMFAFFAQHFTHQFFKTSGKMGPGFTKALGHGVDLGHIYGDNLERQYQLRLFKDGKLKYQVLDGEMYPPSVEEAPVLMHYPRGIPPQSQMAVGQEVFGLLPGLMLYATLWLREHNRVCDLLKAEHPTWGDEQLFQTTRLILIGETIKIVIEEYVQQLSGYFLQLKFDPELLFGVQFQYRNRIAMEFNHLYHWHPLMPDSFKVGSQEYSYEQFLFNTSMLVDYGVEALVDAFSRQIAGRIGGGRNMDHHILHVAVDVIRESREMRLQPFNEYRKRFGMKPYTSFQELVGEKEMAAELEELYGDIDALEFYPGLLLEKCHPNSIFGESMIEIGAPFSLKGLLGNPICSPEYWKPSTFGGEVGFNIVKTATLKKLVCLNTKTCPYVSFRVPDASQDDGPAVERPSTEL
Structure (SMILES),inhibition [2],IC50 [4],other results
NS(=O)(=O)/C=C/c1cc(CO)cc(C(=O)c2ccccc2)c1,,,IC50 [1]: 5.4 µM
Cc1cc(/C=C/S(N)(=O)=O)ccc1C(=O)c1ccccc1,0%,,inhibition [3]: 41%
CC(C(=O)O)c1cc(/C=C/S(C)(=O)=O)cc(C(=O)c2ccccc2)c1 (stereo not given),,9.7 µM,
CS(=O)(=O)/C=C/c1ccc(C(=O)c2ccccc2)cc1,14%,,inhibition [5]: 6%
CCc1cc(C(=O)c2ccccc2)ccc1/C=C/S(N)(=O)=O,,5.6 µM,IC50 [6]: 6.3 µM
NS(=O)(=O)/C=C/c1ccc(C(=O)c2ccccc2)cc1CO,25%,8.4 µM,
CCc1cc(/C=C/S(N)(=O)=O)cc(C(=O)c2ccccc2)c1,,0.2 µM,IC50 [8]: 100 µM; IC50 [9]: 12 µM; IC50 [1]: 18 µM
CN(C)C(=O)c1cc(/C=C/S(N)(=O)=O)cc(C(=O)c2ccccc2)c1,,,inhibition [10]: 31%
CS(=O)(=O)/C=C/c1cccc(C(=O)c2ccccc2)c1,,,IC50 [11]: Not Active
CC(C)=Cc1cc(/C=C/S(N)(=O)=O)cc(C(=O)c2ccccc2)c1,,0.98 µM,IC50 [1]: 3.6 µM
NS(=O)(=O)/C=C/c1cccc(C(=O)c2ccccc2)c1,0%,,inhibition [10]: 37%
CCN(CC)Cc1cc(/C=C/S(N)(=O)=O)cc(C(=O)c2ccccc2)c1,,7.1 µM,
N#Cc1cc(/C=C/S(N)(=O)=O)cc(C(=O)c2ccccc2)c1,,5.6 µM,IC50 [1]: 1.7 µM

# Second part, led by results:
inhibition [2],IC50 [4],Structure (SMILES),other results
0%,,CS(=O)(=O)c1ccc(C2=C(c3ccccc3)C(=O)OC2)cc1,
,20 µM,CC(=O)c1cc(/C=C/S(N)(=O)=O)cc(C(=O)c2ccccc2)c1,IC50 [1]: 6.4 µM
,19 µM,Cc1ccc(/C=C/S(N)(=O)=O)cc1C(=O)c1ccccc1,inhibition [7]: 49%
,0.77 µM,CCc1ccc(/C=C/S(N)(=O)=O)cc1C(=O)c1ccccc1,IC50 [1]: 0.2 µM
,2.6 µM,CCc1cc(/C=C/C(=O)O)cc(C(=O)c2ccccc2)c1,
0%,,Cc1cc(C(=O)c2ccccc2)ccc1/C=C/S(N)(=O)=O,inhibition [5]: 14%
,5 µM,CCOC(=O)/C=C/c1cc(CC)cc(C(=O)c2ccccc2)c1,
16%,,CCc1cc(/C=C/S(C)(=O)=O)cc(C(=O)c2ccccc2)c1,inhibition [10]: 40%
,1.8 µM,CCc1cc(/C=C/C(N)=O)cc(C(=O)c2ccccc2)c1,IC50 [12]: 74 nM
39%,,NS(=O)(=O)/C=C/c1ccccc1C(=O)c1ccccc1,inhibition [5]: 43%

# — ChEMBL document CHEMBL1136059 (Bioorg Med Chem Lett, 2002)
